# Laboratory results published in patent US20150344426A1, “COMPOUNDS AND THERAPEUTIC USES THEREOF” (ALZHEIMER'S INSTITUTE OF AMERICA, INC., priority 2012, published 2015).
# Several values for one entry are separate records, joined by “and”; a condition that tells them apart may be missing. Equal entries are not always repeated. Where two headings read alike, the source gives them in different places.
# How the values were obtained:
# [1] = Stability in mouse liver microsomal preparations; format: in vitro ADME; details: liver microsomes, with and without 1 mM NADPH (not said which), read-out: Mouse Liver Microsomes t1/2
# Description: (§1) Relative stability of Example Compound Nos. 1 through 60 in mouse plasma and mouse liver microsomal preparations.
# (§2) Certain Example Compounds were each added to a final concentration of 1 μM to 1 mL of each of mouse plasma and mouse liver microsomal preparations (with and without 1 mM NADPH). Stability assays were run in duplicate and were sampled at 0, 5, 15, 30, 60 and 120 minutes as follows: one hundred microliter aliquots of samples were removed at the specified sampling times, and the reaction was quenched with 400 μL of acetonitrile.
# (§3) Samples were analyzed by HPLC-ESI-MS/MS by measuring the peak area of both the starting Example Compound and parent compound (i.e., either Parent Compound A or Parent Compound B) that were created by removal of the Prodrug Moiety (as defined in Section 6 herein).
# [2] = Stability in mouse plasma; format: in vitro ADME; details: read-out: Mouse Plasma t1/2
# Description: as §1, §2, §3
# [3] = Experiment 2: femoral vein samples of rats after IV Parent Compound A; format: in vivo, female Sprague Dawley rats; details: for [Par. Cmp. A]: listed as Par. Cmp. A
# Description: Experiment 2. Three female Sprague Dawley rats (215-250 g, Charles River Laboratories) with a catheter implanted surgically in the femoral vein for blood sampling were used in this study. Parent Compound A, solubilized in 3% DMA, 40% PEG300, 12% ethanol, and 45% water by volume, was administered IV at a dose of 2.5 mg/kg in a volume of 2 mL/kg. Femoral blood samples were collected from each animal at 0.083, 0.25, 0.5, 1, 2, 4, and 8 hours following administration of compound and processed for analysis of Parent Compound A concentration.
# Pharmacokinetic parameters estimated for Parent Compound A included the maximum observed drug concentration (Cmax), time of maximum observed drug concentration (Tmax), apparent terminal half-life (t1/2), area under the concentration-time curve from time zero to 8 hours postdose (AUC(0-8)), and area under the concentration-time curve extrapolated to infinity (AUC(0-inf)). The bioavailability (% F) of Parent Compound A in portal vein samples relative to IV administration was also estimated.
# Plasma samples were analyzed for Example Compound 35 or Parent Compound A concentration using a LC-MS/MS method. All sample runs met standard acceptance criteria for discovery purposes, and were based on a standard curve containing at least 7 points. At least half of quality control samples at each of the three concentrations tested, and two thirds of the entire quality control sample pool, were within 15% of their theoretical value. The r^2 value for each standard curve was ≧0.99. The quantitation range for the Example Compound 35 and Parent Compound A assays was 1 to 100 ng/mL and 5 to 2,500 ng/mL, respectively, using a 0.05 mL sample volume.
# The data were entered into the PK software package WinNonlin® version 5.1.1. A complete data check was conducted to verify the accuracy of data entry.
# Pharmacokinetic parameters were estimated on median plasma concentrations using extravascular input (PO). Nominal collection times after administration of compound were used for PK analyses. The use of a non-compartmental model provided an adequate fit of the data. Pharmacokinetic parameters estimated for Parent Compound A included the maximum observed drug concentration (Cmax), time of maximum observed drug concentration (Tmax), apparent terminal half-life (t1/2), apparent volume of distribution (Vz obs), apparent clearance (C1 obs), area under the concentration-time curve from time zero to 8 hours postdose of Example Compound 35 […], and area under the concentration-time curve extrapolated to infinity (AUC(0-inf)). Example Compound 35 was detected in only one 0.25 hour hepatic portal vein sample at 1.29 ng/mL. Any Example Compound 35 present in all of the other samples was below the quantitation limit of 1 ng/mL and pharmacokinetic parameters were not determined for those samples. The median PK parameters estimated for Parent Compound A following portal vein sampling of the oral dose of Example Compound 35 or following femoral vein sampling of the intravenous dose of Parent Compound A are given in the Table 5 below. Individual and median concentration of Parent Compound A and Example Compound 35 in hepatic portal vein following oral administration of Example Compound 35 (20 mg/kg) to rats pursuant to Experiment 1 are shown in Table 6 below. Individual and median plasma concentration of Parent Compound A in femoral vein following IV administration of Parent Compound A (2.5 mg/kg) to rats pursuant to Experiment 2 are shown in Table 7 below. FIG. 5 depicts median concentration of Parent Compound A and Example Compound 35 in hepatic portal vein of rats following a single oral dose of Example Compound 35 (20 mg/kg). FIG. 6 depicts median plasma concentration of Parent Compound A following a single IV dose of Parent Compound A (2.5 mg/kg) to rats. […]
# [4] = female, Sprague-Dawley, rat, plasma (femoral vein), Parent Cmpd. A 2.5 mg/kg IV, Femoral Vein, median
smiles,measurement,setting,value
"O=C(NCc1ccc[n+](COC(=O)c2ccccc2)c1)Nc1ccc(OCCc2ccccc2-c2ccccc2)cc1 [Example 35, 1-[(Benzoyloxy)methyl]-3-{[({4-[2-(biphenyl-2-yl)ethoxy]phenyl}carbamoyl)amino]methyl} pyridinium]",half-life at 1 µM,[1],< 5 min
same,half-life at 1 µM,[2],1.29 h
"O=C(NCc1cccnc1)Nc1ccc(OCCc2ccccc2-c2ccccc2)cc1 [Parent Compound A, 1-{4-[2-(Biphenyl-2-yl)ethoxy]phenyl}-3-(pyridin-3-ylmethyl)urea]",concentration at 0.083 h,"[3]; female, Sprague-Dawley, rat, plasma (femoral vein), iv, 2.5 mg/kg, femoral vein plasma, 0.083 hr after IV Parent Compound A 2.5 mg/kg, read-out: Median [Par. Cmp. A]",1920 ng/mL
same,concentration at 0.25 h,"[3]; female, Sprague-Dawley, rat, plasma (femoral vein), iv, 2.5 mg/kg, femoral vein plasma, 0.25 hr after IV Parent Compound A 2.5 mg/kg, individual rats, read-out: [Par. Cmp. A]",1610 ng/mL
same,concentration at 0.25 h,"[3]; female, Sprague-Dawley, rat, plasma (femoral vein), iv, 2.5 mg/kg, femoral vein plasma, 0.25 hr after IV Parent Compound A 2.5 mg/kg, read-out: Median [Par. Cmp. A]",1130 ng/mL
same,concentration at 0.5 h,"[3]; female, Sprague-Dawley, rat, plasma (femoral vein), iv, 2.5 mg/kg, femoral vein plasma, 0.5 hr after IV Parent Compound A 2.5 mg/kg, individual rats, read-out: [Par. Cmp. A]",568 ng/mL
same,concentration at 0.5 h,"[3]; female, Sprague-Dawley, rat, plasma (femoral vein), iv, 2.5 mg/kg, femoral vein plasma, 0.5 hr after IV Parent Compound A 2.5 mg/kg, read-out: Median [Par. Cmp. A]",720 ng/mL
same,concentration at 1 h,"[3]; female, Sprague-Dawley, rat, plasma (femoral vein), iv, 2.5 mg/kg, femoral vein plasma, 1 hr after IV Parent Compound A 2.5 mg/kg, individual rats, read-out: [Par. Cmp. A]",343 ng/mL
same,concentration at 1 h,"[3]; female, Sprague-Dawley, rat, plasma (femoral vein), iv, 2.5 mg/kg, femoral vein plasma, 1 hr after IV Parent Compound A 2.5 mg/kg, read-out: Median [Par. Cmp. A]",360 ng/mL
same,concentration at 2 h,"[3]; female, Sprague-Dawley, rat, plasma (femoral vein), iv, 2.5 mg/kg, femoral vein plasma, 2 hr after IV Parent Compound A 2.5 mg/kg, individual rats, read-out: [Par. Cmp. A]",136 ng/mL
same,concentration at 2 h,"[3]; female, Sprague-Dawley, rat, plasma (femoral vein), iv, 2.5 mg/kg, femoral vein plasma, 2 hr after IV Parent Compound A 2.5 mg/kg, read-out: Median [Par. Cmp. A]",177 ng/mL
same,concentration at 4 h,"[3]; female, Sprague-Dawley, rat, plasma (femoral vein), iv, 2.5 mg/kg, femoral vein plasma, 4 hr after IV Parent Compound A 2.5 mg/kg, read-out: Median [Par. Cmp. A]",26.2 ng/mL
same,concentration at 8 h,"[3]; female, Sprague-Dawley, rat, plasma (femoral vein), iv, 2.5 mg/kg, femoral vein plasma, 8 hr after IV Parent Compound A 2.5 mg/kg, individual rats, * = below the quantitation limit of 5 ng/mL, read-out: [Par. Cmp. A]",1.98 ng/mL
same,concentration at 8 h,"[3]; female, Sprague-Dawley, rat, plasma (femoral vein), iv, 2.5 mg/kg, femoral vein plasma, 8 hr after IV Parent Compound A 2.5 mg/kg, read-out: Median [Par. Cmp. A]",2.1 ng/mL
same,AUC(0-inf),[3]; [4],1460 ng·h/mL
same,Cmax,[3]; [4],1920 ng/mL
same,Tmax,[3]; [4],4.2 min
same,half-life,[3]; [4],1 h
same,AUC(0-t),"[3]; female, Sprague-Dawley, rat, plasma (femoral vein), Parent Cmpd. A 2.5 mg/kg IV, Femoral Vein, median, read-out: AUC(0-8)",1460 ng·h/mL
same,[Par. Cmp. A],"[3]; femoral vein plasma, 0.083 hr after IV Parent Compound A 2.5 mg/kg, individual rats, 2.5 mg/kg","1,303.7 ng/mL and 2,660.1 ng/mL and 1,924.0 ng/mL"
same,[Par. Cmp. A],"[3]; femoral vein plasma, 0.25 hr after IV Parent Compound A 2.5 mg/kg, individual rats, 2.5 mg/kg","1,131.8 ng/mL and 878.3 ng/mL"
same,[Par. Cmp. A],"[3]; femoral vein plasma, 0.5 hr after IV Parent Compound A 2.5 mg/kg, individual rats, 2.5 mg/kg","1,062.6 ng/mL and 719.5 ng/mL"
same,[Par. Cmp. A],"[3]; femoral vein plasma, 1 hr after IV Parent Compound A 2.5 mg/kg, individual rats, 2.5 mg/kg",565.0 ng/mL and 360.4 ng/mL
same,[Par. Cmp. A],"[3]; femoral vein plasma, 2 hr after IV Parent Compound A 2.5 mg/kg, individual rats, 2.5 mg/kg",268.6 ng/mL and 177.2 ng/mL
same,[Par. Cmp. A],"[3]; femoral vein plasma, 4 hr after IV Parent Compound A 2.5 mg/kg, individual rats, 2.5 mg/kg",19.7 ng/mL and 39.7 ng/mL and 26.2 ng/mL
same,[Par. Cmp. A],"[3]; femoral vein plasma, 8 hr after IV Parent Compound A 2.5 mg/kg, individual rats, * = below the quantitation limit of 5 ng/mL, 2.5 mg/kg",2.05* ng/mL and 2.81* ng/mL
